In patent publication US9173383B2, “Recombinant non-human mammalian model for hepatitis infection and immunopathogenesis” (The University of North Carolina at Chapel Hill, priority 2008, dated 2015):

Legend:
[1] = test system: human hepatocyte engraftment; experiment: Human hepatocyte engraftment in AP20187-treated AFC8/DKO mice (human albumin ELISA); type: in vivo, mouse
Description: (§1) FIG. 9. […] AFC8/DKO transgenic mice were treated with AP20187 (5 μg/g). A. Plasma ALT levels were measured at 24 hr and 72 hr (and 3-6 days, not shown) post treatment. […] Two non-TG DKO mice were used as controls (dashed line, background). B. Livers were harvested at 24 h after the 2nd injection and H&E stained. […] V, vein. C. […] AFC8/DKO or DKO mice were treated with AP20187 (5 μg/g) one hour prior to intra-splenic injection of human hepatocytes (2×10e6/mouse). Sera were collected at 80 days post transfer and human albumin levels were determined by ELISA. […] AFC8/DKO transgenic mice were treated with AP20187 (5 μg/g). Plasma ALT levels were measured at 24 hr and 72 hr (and 3-6 days, not shown) post treatment (FIG. 9A). […] Two non-TG DKO mice were used as controls (dashed line, background). Livers were harvested at 24 h after the 2nd injection and H&E stained (FIG. 9B). […] V, vein. […] AFC8/DKO or DKO mice were treated with AP20187 (5 μg/g) one hour prior to intra-splenic injection of human hepatocytes (2×10e6/mouse). Sera were collected at 80 days post transfer and human albumin levels were determined by ELISA.

293T cells = experiment: Hepatocyte-specific apoptosis with Alb-FKBP-Casp8 in 293T cells (7AAD FACS); type: cell-based; conditions: AP20187 2 nM, 24 hours
Description: (§2) FIG. 5. Generation of Alb-FKBP-Casp8 transgenic DKO (AFC8/DKO) mice. (A) The Alb-FKBP-Casp8 transgene structure and AFC8/DKO-hu HSC/Hep mice: the FKBP2Casp8 fusion gene was cloned into the liver specific transgenic construct with the Albumin promoter (see Heckel et al. 1990. Neonatal bleeding in transgenic mice expressing urokinase-type plasminogen activator. Cell 62:447-56). (B) Hepatocyte-specific apoptosis with expression from the albumin promoter/enhancer. […] As described in FIG. 6B, the FKBP-Casp8 gene controlled by CMV enhancer or the hepatocyte-specific albumin promoter was co-transfected with GFP-expressing plasmid in 293T and HepG2 cells. Transfected cells were cultured for 30 hours and AP20187 dimerizer (2 nM) was added to the culture medium. The cells were then cultured for 24 hours, harvested, stained with 7AAD, and analyzed for GFP and 7AAD. GFP+ cells were analyzed for 7AAD uptake (dead cells). (C) Generation of Alb-FKBP-Casp8/DKO transgenic mice. Standard transgenic mouse procedure was used to inject the transgene construct into fertilized DKO embryos. In the initial screening of 11 mice from two injections, one transgenic founder was identified. […]

[2] = test system: 293T cells transfected with FKBP-Caspase 8; experiment: Inducible cell killing in 293T cells co-transfected with eGFP and CMV-promoter driven FKBP-Casp8 (7AAD FACS); type: cell-based
Description: FIG. 4. Generation of the FKBP-Casp8 fusion gene with inducible cell killing activity. (A) Inducible activation of Caspase 8 through dimerization. The chemical dimerizer AP20187 causes dimerization/activation of Caspase 8 through interaction of adjacent FKBP binding sites. M, myristoylation signal; FKBP, FK506 binding domain; caspase, human activated caspase 8 (fragment Ser217-Aps479. ref) was cloned into the pC4M-Fv2E vector (Ariad Pharmaceuticals) to express the FKBP2-Casp8 fusion protein whose activation is induced by dimerization with AP20187. (B-C) Dose-dependent induction of apoptosis in cells transfected with FKBP-Caspase 8. 293T cells were co-transfected with plasmids expressing eGFP alone, or with CMV-promoter driven FKBP-Casp8. Transfected cells were cultured for 30 hours and then various amounts of AP20187 dimerizer was added. The cells were then cultured for 24 hours, harvested, stained with 7AAD, and analyzed by FACS for GFP and 7AAD. (B) GFP+ (transfected) cells were gated and the percentage of dead cells (7AAD+) was analyzed. (C) GFP− (untransfected bystander) cells were similarly analyzed. At least 3 independent experiments are repeated.
The FKBP-Caspase8 fusion gene with inducible cell killing activity was constructed (FIG. 4; and Chang et al. 2003. Activation of procaspases by FK506 binding protein-mediated oligomerization. Sci STKE 2003:PL1). […] Therefore, FKBP-Casp8 activation by AP20187 kills target cells expressing the gene but not bystander cells, an important point for depleting specific target cells in vivo.

murine hepatocytes = experiment: Dimer injection in AFC8/DKO transgenic mice: mouse liver damage (plasma ALT, H&E); type: in vivo
Description: as §1

HepG2 cells = experiment: Hepatocyte-specific apoptosis with Alb-FKBP-Casp8 in HepG2 cells (7AAD FACS); type: cell-based; conditions: AP20187 2 nM, 24 hours
Description: as §2

FKBP-Casp8 = conditions: 0.25, 1, 4 and 10 mg/kg, peritoneal; cited from earlier work
human T and B cells = experiment: Ova vaccination of DKO-hu mice, Ova-specific T and B cell responses; type: in vivo, mouse; conditions: 3 weeks post vaccination
Description: FIG. 1. Long-term, stable human hemato-lymphopoiesis in HSC-DKO Mice. Human fetal liver CD34+ cells were injected intra-hepatically in newborn (1-3 days old) DKO mice. At 12-50 weeks post transplant, the human CD45^+, murine CD45^− cells in PBMC, lymph node (LN), spleen, bone marrow and thymus were analyzed by multi-color FACS. A: Human CD45 reconstitution (12-16 weeks old) in 5 cohorts of DKO-hu HSC mice from 5 independent donor fetal livers. Shown is average % human CD45+ cells in PB of reconstituted DKO-hu HSC mice. Error bars indicate standard errors of each cohort (n=numbers of mice/cohort). B: Human cells reconstitution in PBMC of the transplanted mice. […] Human T cells from a DKO-hu mouse at 50 weeks are analyzed for expression of CD45RO and CD69. […] Human T proliferation is measured by 3-H thymidine incorporation for 16 hr after 3 days post co-culture. […] H: DKO-hu mice are vaccinated with Ova protein and Ova-specific T cell recall response is measured at 3 weeks post vaccination. […] Human T cell proliferation is measured as above.
Human T cells are negatively selected by both mouse MHC/APC and human MHC/APC because both human and mouse antigen presenting cells (APC) are detected in the mouse thymus (see Traggiai et al. 2004. Development of a human adaptive immune system in cord blood cell-transplanted mice. Science 304:104-7). […]

Ova-specific human IgG = experiment: Immunization of DKO-hu HSC mice, Ova-specific human IgG induction; type: in vivo; conditions: DKO-hu HSC mouse
Description: FIG. 8. Antigen-Fc fusion proteins give enhanced antigen-specific IgG induction in vivo.
Human IgG+ B cells were increased by activating human T cells in the spleen in vitro with anti-CD3/CD28 mAb (FIG. 7). […] Ova-specific human IgG induction is enhanced by using the fusion protein between the same chicken ovalbumin protein with the Fc domain of human IgG (FIG. 8).

[3] = various amounts of AP20187, 24 hours

Molecule: CC[C@H](C(=O)N1CCCC[C@H]1C(=O)O[C@H](CCc1ccc(OC)c(OC)c1)c1cccc(OCC(=O)NCC(CNC(=O)COc2cccc([C@@H](CCc3ccc(OC)c(OC)c3)OC(=O)[C@@H]3CCCCN3C(=O)[C@@H](CC)c3cc(OC)c(OC)c(OC)c3)c2)CN(C)C)c1)c1cc(OC)c(OC)c(OC)c1 [AP20187]
- human albumin levels in sera (ELISA) ([1]; 5 μg/g one hour prior to intra-splenic human hepatocytes, 80 days post transfer): Enhanced human albumin levels
- enhanced human hepatocyte engraftment ([1]; dimer injection in AFC8/DKO mice): 50-100 ×
- enhanced human hepatocyte engraftment ([1]; one injection of dimerizers): 100 ×
- cell killing (7AAD uptake of GFP+ cells) with Alb-FKBP-Casp8 (293T cells): not 293T cells
- effect on cells transfected with only GFP expressing gene [2]: no detectable effect
- death of GFP+/FKBP-Casp8+ (transfected) cells, 7AAD+ [2, 3]: led to death of GFP+/FKBP-Casp8+ cells
- death of GFP− (untransfected bystander) cells [2, 3]: not GFP− bystander cells
- liver H&E staining (murine hepatocytes; 24 h after the 2nd injection, TG livers): Accumulation of fat droplets
- mouse liver damage (murine hepatocytes; AFC8/DKO mice, 5 μg/g): transient mouse liver damage
- plasma ALT levels (murine hepatocytes; second injection 6 days after 1st injection, 5 μg/g): elevated ALT levels
- cell killing (7AAD uptake of GFP+ cells) with Alb-FKBP-Casp8 (HepG2 cells): functions in HepG2
- inducing Caspase8 activation and target cell depletion (FKBP-Casp8): effective
- toxicity in mice (FKBP-Casp8): No toxicity is observed

B1: chicken ovalbumin protein: chicken ovalbumin protein used as immunization antigen (protein, UniProt P01012 2-386, looked up)
Ovalbumin: GSIGAASMEFCFDVFKELKVHHANENIFYCPIAIMSALAMVYLGAKDSTRTQINKVVRFDKLPGFGDSIEAQCGTSVNVHSSLRDILNQITKPNDVYSFSLASRLYAEERYPILPEYLQCVKELYRGGLEPINFQTAADQARELINSWVESQTNGIIRNVLQPSSVDSQTAMVLVNAIVFKGLWEKAFKDEDTQAMPFRVTEQESKPVQMMYQIGLFRVASMASEKMKILELPFASGTMSMLVLLPDEVSGLEQLESIINFEKLTEWTSSNVMEERKIKVYLPRMKMEEKYNLTSVLMAMGITDVFSSSANLSGISSAESLKISQAVHAAHAEINEAGREVVGSAEAGVDAASVSEEFRADHPFLFCIKHIATNAVLFFGRCVSP
- Ova-specific human T and B cell responses (human T and B cells): induces Ova-specific human T and B cell responses
- Ova-specific human IgG (Ova-specific human IgG): very low levels
